Assay results from patent US20030176356A1, “Endothelin antagonists and endothelin-converting enzyme inhibitors for the treatment of glaucoma” (University of North Texas Health Science Center, priority 2001, published 2003).
Marks after values point to notes of the source that are not given here. No end group written: not given here. *: point of attachment. dPhe(β-Ph) = β-phenyl D-Phe (N-terminal, N-acetylated), CC(=O)N[C@@H](C(=O)*)C(c1ccccc1)c1ccccc1

Key:
[1] = system: human non-pigmented ciliary epithelial (HNPE) cells; test: Nitric oxide release from HNPE cells (nitrite, Griess colorimetric assay); format: cell-based; details: pre-treated with PD-142893 (1 μM) 30 minutes, then 100 nM ET-1, 24 hours; vs ET-1 alone
Method: The effect of endothelin-1 (ET-1) and PD-142893, an ETA/B receptor antagonist, on nitric oxide (“NO”) release from human non-pigmented ciliary epithelial (HNPE) cells are illustrated in FIG. 6. The NO released into the culture media from HNPE cells grown in 24-well plates and treated with ET-1 (100 nM) for 24 hours was converted to nitrites. The total amount of nitrites was measured using the Griess colorimetric assay. HNPE cells were pre-treated with PD-142893 (1 μM) for 30 minutes and then 100 nM ET-1 was also added and incubated for 24 hours. The values in FIG. 6 represent the mean±SEM of a ratio between the nitrite produced under experimental conditions divided by the nitrite produced in control cells, which corresponded to 14.4±1.8 μM and controls were expressed as 100% (n=3). Statistical significance of the nitrite released from ET-1 (100 nM) treatment versus the control are denoted with an asterisk (“*”). Statistical significance of the nitrite released from PD-142893+ET-1 (100 nM) treatment versus that of ET-1 (100 nM) are denoted as a double asterisk (“**”) The statistical differenced were determined by one-way ANOVA and Student-Newman-Keuls multiple comparison test (p<0.05). Thus, addition of ET-1 increased the nitrite levels nearly 2-fold when compared to control cells or cells treated with PD-142893.

[2] = system: rat optic nerve; test: Anterograde axonal transport in rat optic nerve after intravitreal injection (35S-methionine pulse label); format: in vivo; details: 28 hour ISI, 2 mmol dose, p>0.999, ANOVA, N=7
Excerpt: Newly synthesized proteins undergoing anterograde axonal transport in the optic nerve were pulse-labeled in either the presence or absence of endothelin as modified from previously published methods (van Biesen et al., 1995). Modifications to previously published methods were minimal and involved the replacement of a distilled water vehicle for resuspension of radiolabeled precursors with either HEPES buffered ET-1 or HEPES vehicle buffer alone. ^35S-Methionine (Easytag EXPRESS PROTEIN LABELING MIX, Dupont-NEN Life Sciences, Boston, Mass.) was lyophilized and resuspended in either vehicle alone (10 mM HEPES, pH 7.4, Sigma Chemical Co., St Louis, Mo.) or in vehicle containing 500 μM ET-1 (Bachem, Belmont, Calif.). Rats were anesthetized by Metofane inhalation, and 0.8 mCi (4 μl) of radiolabel in vehicle either plus or minus ET-1 (final dose 2 mmols), was injected into the vitreous of the left eye using a 30 gauge needle attached to a Hamilton syringe (microliter #710, 22s gauge, Hamilton Co., Reno, Nev.) by polyethylene tubing (PE-20, Clay Adams Brand, Becton Dickson and Co., Sparks, Md.) (van Biesen et al., 1995). In one experiment, ET-3 was substituted for ET-1, using the same methods (2 mmol dose, 28 hour ISI, N=7 for controls, N=7 for experimentals). […] One minute after injection, all retinas appeared normal in color. (Based upon these initial observations, further observations of the retinas were not performed). Information on the dose-related effect(s) of intravitreal ET-1 in this species (i.e. rat) were unavailable, and physiological/pathological concentrations of endothelin in the optic nerve head's microenvironment are generally unknown. Therefore, dose selection was made on the basis of a small pilot study, using these methods and measuring the total pulse-labeled protein axonally transported into the rat optic nerve. (An N of 3 rats in every group was used only for the pilot study, 4 hour ISI, data not shown). […] However, significant effects on axonal transport (4 hour ISI) were only seen in the pilot study for the 2 mmol dose. […] Possible effect(s) on non-assayed ocular tissues were not considered in dose selection, as data on these were unavailable for either acute or chronic intravitreal ET-1 administration, in rats.
This technique was employed to determine if endothelin-1 also affected the axonal transport in the optic nerve of rats, which is severely compromised in glaucoma. Harvest and preparation of pulse-labeled optic nerves in animals, wherein animals were anesthetized with metofane at specified times after injection and sacrificed by decapitation. Injection-sacrifice intervals were selected based upon the published characterizations of anterograde axonal transport in rat optic nerve for specific marker proteins associated with specific classes of axonally transported materials (Table 4) (Elluru et al., 1995; Garner and Lasek, 1981; Garner and Lasek, 1982; Jahn et al., 1985). Seven vehicle-treated animals and seven endothelin-treated animals were sacrificed at each of the specified times (4, 24, 28, 32, 36 hours and 4, 21 days). Optic nerves were removed, flash frozen with crushed dry ice, and sectioned frozen. Nerves were sectioned to aid complete homogenization, and to provide additional data for future studies. The frozen sections (2 mm in length) were numbered as segments 1-4 (from proximal to distal), and glass-on glass homogenized in 100 μlof BUST sample buffer (2% β-mercaptoethanol, 8M urea, 1% SDS, 0.1M Tris, 0.02% phenol red, pH 7.4). A 25% aliquot of each homogenized segment was counted in a liquid scintillation counter, and counts were corrected for decay, quench, and counting efficiency.

[3] = target: T1, ECE-1 (Rattus norvegicus, UniProt P42893); test: ECE-1 activity in plasma membrane fraction of rat lung tissue (conversion of 125I Big ET-1 to 125I ET-1); format: biochemical
T1 construct: The endogenous ECE from the plasma membrane fraction converted the; from tissue; host or cells: rat lung tissue, plasma membrane fraction
T1 sequence (P42893 1-762): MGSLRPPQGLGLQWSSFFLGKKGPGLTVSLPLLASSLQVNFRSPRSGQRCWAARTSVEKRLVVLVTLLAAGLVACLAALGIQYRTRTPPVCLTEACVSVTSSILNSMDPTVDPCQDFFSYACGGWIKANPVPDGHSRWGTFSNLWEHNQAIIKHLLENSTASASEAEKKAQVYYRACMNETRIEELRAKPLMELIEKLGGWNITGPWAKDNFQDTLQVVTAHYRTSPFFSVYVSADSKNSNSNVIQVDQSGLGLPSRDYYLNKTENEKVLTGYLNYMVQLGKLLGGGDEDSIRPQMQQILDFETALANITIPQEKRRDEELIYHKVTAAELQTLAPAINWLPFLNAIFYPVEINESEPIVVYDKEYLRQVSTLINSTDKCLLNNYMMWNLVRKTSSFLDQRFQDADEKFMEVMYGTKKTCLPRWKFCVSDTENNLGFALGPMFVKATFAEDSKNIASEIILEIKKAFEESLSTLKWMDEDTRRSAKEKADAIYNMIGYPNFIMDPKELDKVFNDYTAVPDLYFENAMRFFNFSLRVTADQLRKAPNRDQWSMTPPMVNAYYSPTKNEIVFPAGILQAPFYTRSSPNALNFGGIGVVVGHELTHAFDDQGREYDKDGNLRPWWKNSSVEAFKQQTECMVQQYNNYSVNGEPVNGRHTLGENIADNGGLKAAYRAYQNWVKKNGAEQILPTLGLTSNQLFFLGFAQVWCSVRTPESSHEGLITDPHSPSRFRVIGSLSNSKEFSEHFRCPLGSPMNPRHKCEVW
Method: (§1) Fractions were incubated at 37° C. and collected at various time periods ranging from 5 minutes to 24 hours. […] Values represent the mean±SEM for data obtained from replicate samples. Statistical significance of mean [ET-1] among different time periods in HNPE cells as determined by one-way ANOVA and Student-Newman-Keuls multiple comparison test at p<0.05 (5 min n=3; 10 min n=6; 180 min n=9; 24 hrs n=4). Values that were statistically different are identified with an asterisk (“*”). Statistical significance of mean [ET−1] among different time periods in rat lung tissue as determined by one-way ANOVA and Student-Newman-Keuls multiple comparison test at p<0.05 (n=6 for 180 minutes; n=4 for other time periods) and denoted with a cross (“†”). It should be noted that the regression analysis (“r^2”) and line equation (“y=m×+b”) for percent ECE-1 activity were calculated based on a line graph with equal scale on the X axis ranging from 0-1500 minutes.
(§2) Briefly, plasma membrane fractions (e.g. 20 μg total protein) of HNPE cells and rat lung tissue were incubated with 80 fmoles/mg protein of ^125I Big ET-1 for 180 minutes. […] However, each of the samples was divided into two groups: a control; and the CGS 26303 treated group. […] The data were analyzed statistically by one-way ANOVA, and those values that show a significant difference (p<0.05 level) are identified with an asterisk (*).

[4] = target: T2, ECE-1 (Homo sapiens, UniProt P42892); test: ECE-1 activity in plasma membrane fraction of HNPE cells (conversion of 125I Big ET-1 to 125I ET-1); format: biochemical
T2 construct: The endogenous ECE from the plasma membrane fraction converted the; endogenous in cells; host or cells: HNPE cells (human non-pigmented ciliary epithelial), plasma membrane fraction
T2 sequence (P42892 1-770): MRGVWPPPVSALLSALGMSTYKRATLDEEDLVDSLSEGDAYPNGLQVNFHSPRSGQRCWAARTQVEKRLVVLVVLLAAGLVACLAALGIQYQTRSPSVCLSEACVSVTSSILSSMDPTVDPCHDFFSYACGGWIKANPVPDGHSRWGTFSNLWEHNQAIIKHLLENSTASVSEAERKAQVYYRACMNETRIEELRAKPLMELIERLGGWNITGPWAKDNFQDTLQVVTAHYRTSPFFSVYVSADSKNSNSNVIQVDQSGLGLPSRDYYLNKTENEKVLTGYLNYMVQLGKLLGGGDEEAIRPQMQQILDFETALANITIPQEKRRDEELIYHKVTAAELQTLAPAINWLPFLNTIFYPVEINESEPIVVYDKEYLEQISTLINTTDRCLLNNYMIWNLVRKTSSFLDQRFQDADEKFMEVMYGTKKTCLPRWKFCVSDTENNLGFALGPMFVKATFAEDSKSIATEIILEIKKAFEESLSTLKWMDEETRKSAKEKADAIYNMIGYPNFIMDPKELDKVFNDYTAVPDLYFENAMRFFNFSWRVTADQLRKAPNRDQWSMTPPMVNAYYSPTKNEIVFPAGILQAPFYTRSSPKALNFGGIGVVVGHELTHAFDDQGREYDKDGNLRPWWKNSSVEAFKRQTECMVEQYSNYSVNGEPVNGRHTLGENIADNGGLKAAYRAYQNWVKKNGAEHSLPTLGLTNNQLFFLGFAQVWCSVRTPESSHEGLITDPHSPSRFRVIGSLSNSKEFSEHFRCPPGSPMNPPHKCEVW
Method: as §1, §2

For “N-Acetyl-b-phenyl D-Phy-Leu-Asp-Ile-Ile-Trp ({Ac-dPhe(β-Ph)}-LDIIW) [PD-142893, ETA/B receptor antagonist]”, the “nitrite production, PD-142893 + ET-1” value [1] was “decrease in nitrite production”.

For “ET-3: ETB-receptor-selective agonist, endothelin isopeptide (CTCFTYKDKECVYYCHLDIIW; ends and bridges not checked; cysteine pairing not given here; UniProt P14138 97-117, looked up)”, the “effect of intravitreal ET-3 on anterograde axonal transport compared with ET-1” value [2] was “no significant difference between ET-1 and ET-3”.

With `O=P(O)(O)CN[C@@H](Cc1ccc(-c2ccccc2)cc1)c1nn[nH]n1` [CGS 26303] the “decrease in 125I ET-1” value ([3]; rat lung plasma membrane fraction, 180 minutes, vs control) was 56%, the “fmoles 125I ET-1 produced/mg protein/180 min” value ([3]; rat lung tissue plasma membrane fraction, 100 μM CGS-26303, 180 min, 37° C., control 25 ± 1) was 11 ± 4* fmoles ^125I ET-1 produced/mg protein/180 min and the “fmoles 125I ET-1 produced/mg protein/180 min” value ([4]; HNPE cells plasma membrane fraction, 100 μM CGS-26303, 180 min, 37° C., control 27 ± 1) was 12 ± 2* fmoles ^125I ET-1 produced/mg protein/180 min. The “decrease in 125I ET-1 production” value ([4]; HNPE plasma membrane fraction, 180 minute time period, vs control) was 55%.
